Source: PMC9492542, “Brain-restricted mTOR inhibition with binary pharmacology” (Nature, 2022)
Read-outs that look alike come from different tables or passages of the source.

Columns and labels:
476 purified kinases [1] = target: 476 purified kinases (Homo sapiens, UniProt O00238)
Method: (§1) In vitro kinase inhibition assays were performed by SelectScreen Services (Thermo Fisher Scientific) using either Z’-LYTE (mTOR, Src, Csk, EGFR, HER2 and HGK), Adapta (LRRK2) or LanthaScreen (DDR2) assay format (standardized protocols can be accessed on the SelectScreen website: https://www.thermofisher.com/us/en/home/products-and-services/services/custom-services/screening-and-profiling-services/selectscreen-profiling-service/selectscreen-kinase-profiling-service.html. When indicated, recombinant FKBP12 protein was added to the assay mixture to a final concentration of 10 µM.

476 purified kinases [2] = target: 476 purified kinases (Homo sapiens, UniProt O75385)
Method: as §1

476 purified kinases [3] = target: 476 purified kinases (Homo sapiens, UniProt P11802); conditions: Adapta
Method: as §1

476 purified kinases [4] = target: 476 purified kinases (Homo sapiens, UniProt P24723); conditions: ZLYTE
Method: as §1

476 purified kinases [5] = target: 476 purified kinases (Homo sapiens, UniProt P37023)
Method: as §1

476 purified kinases [6] = target: 476 purified kinases (Homo sapiens, UniProt P43405); conditions: ZLYTE
Method: as §1

476 purified kinases [7] = target: 476 purified kinases (Homo sapiens, UniProt P48426)
Method: as §1

476 purified kinases [8] = target: 476 purified kinases (Homo sapiens, UniProt P78368); conditions: ZLYTE
Method: as §1

476 purified kinases [9] = target: 476 purified kinases (Homo sapiens, UniProt Q00534); conditions: Adapta
Method: as §1

476 purified kinases [10] = target: 476 purified kinases (Homo sapiens, UniProt Q09013)
476 purified kinases (Homo sapiens, UniProt Q09013), sequence (Q09013 whole entry): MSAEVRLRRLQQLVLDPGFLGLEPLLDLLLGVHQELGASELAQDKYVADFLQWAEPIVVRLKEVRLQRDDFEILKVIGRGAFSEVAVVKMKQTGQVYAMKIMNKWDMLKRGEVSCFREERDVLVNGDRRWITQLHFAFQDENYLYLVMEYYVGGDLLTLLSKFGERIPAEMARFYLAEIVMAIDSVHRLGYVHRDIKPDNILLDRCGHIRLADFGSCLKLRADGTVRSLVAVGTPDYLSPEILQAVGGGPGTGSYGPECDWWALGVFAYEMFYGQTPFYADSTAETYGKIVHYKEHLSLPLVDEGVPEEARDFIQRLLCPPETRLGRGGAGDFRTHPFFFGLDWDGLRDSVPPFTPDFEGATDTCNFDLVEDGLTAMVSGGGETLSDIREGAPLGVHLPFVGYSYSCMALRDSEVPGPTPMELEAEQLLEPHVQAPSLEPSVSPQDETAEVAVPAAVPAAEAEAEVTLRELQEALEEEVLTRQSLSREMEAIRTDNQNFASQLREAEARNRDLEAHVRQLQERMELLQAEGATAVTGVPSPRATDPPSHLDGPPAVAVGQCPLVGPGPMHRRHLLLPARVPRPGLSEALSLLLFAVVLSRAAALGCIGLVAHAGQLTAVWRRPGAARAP
Method: as §1

476 purified kinases [11] = target: 476 purified kinases (Homo sapiens, UniProt Q13177); conditions: ZLYTE
476 purified kinases (Homo sapiens, UniProt Q13177), sequence (Q13177 whole entry): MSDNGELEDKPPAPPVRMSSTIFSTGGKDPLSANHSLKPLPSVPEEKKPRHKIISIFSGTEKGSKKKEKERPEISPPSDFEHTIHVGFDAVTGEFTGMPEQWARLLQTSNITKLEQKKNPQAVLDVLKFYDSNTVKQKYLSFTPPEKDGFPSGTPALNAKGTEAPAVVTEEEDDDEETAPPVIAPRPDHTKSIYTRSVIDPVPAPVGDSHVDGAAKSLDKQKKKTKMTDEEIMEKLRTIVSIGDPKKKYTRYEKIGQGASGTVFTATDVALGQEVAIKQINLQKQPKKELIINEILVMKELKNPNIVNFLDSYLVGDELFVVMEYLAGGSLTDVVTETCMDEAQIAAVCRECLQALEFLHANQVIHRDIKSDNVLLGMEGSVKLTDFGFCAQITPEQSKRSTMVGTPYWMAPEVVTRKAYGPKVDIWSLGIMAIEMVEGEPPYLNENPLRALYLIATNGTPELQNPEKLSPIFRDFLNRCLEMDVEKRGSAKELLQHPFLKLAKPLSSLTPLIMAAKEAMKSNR
Method: as §1

476 purified kinases [12] = target: 476 purified kinases (Homo sapiens, UniProt Q13470); conditions: ZLYTE
476 purified kinases (Homo sapiens, UniProt Q13470), sequence (Q13470 whole entry): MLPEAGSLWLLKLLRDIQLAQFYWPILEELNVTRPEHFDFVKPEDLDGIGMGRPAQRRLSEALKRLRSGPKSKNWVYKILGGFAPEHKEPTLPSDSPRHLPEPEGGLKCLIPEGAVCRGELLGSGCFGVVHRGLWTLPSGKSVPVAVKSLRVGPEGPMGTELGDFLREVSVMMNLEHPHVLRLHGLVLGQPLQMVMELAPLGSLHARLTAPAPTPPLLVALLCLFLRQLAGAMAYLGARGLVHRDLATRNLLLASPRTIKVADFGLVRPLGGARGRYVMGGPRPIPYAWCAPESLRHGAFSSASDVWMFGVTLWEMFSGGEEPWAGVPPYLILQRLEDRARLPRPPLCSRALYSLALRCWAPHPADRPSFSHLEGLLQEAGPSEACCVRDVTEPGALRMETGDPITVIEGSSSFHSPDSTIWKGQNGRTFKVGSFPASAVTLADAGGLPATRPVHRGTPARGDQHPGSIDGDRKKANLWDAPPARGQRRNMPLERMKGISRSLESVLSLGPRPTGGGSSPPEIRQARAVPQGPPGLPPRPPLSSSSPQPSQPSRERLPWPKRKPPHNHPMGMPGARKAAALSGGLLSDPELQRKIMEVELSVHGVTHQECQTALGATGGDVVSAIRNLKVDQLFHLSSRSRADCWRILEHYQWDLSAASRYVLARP
Method: as §1

476 purified kinases [13] = target: 476 purified kinases (Homo sapiens, UniProt Q15208)
Method: as §1

476 purified kinases [14] = target: 476 purified kinases (Homo sapiens, UniProt Q32MK0)
Method: as §1

476 purified kinases [15] = target: 476 purified kinases (Homo sapiens, UniProt Q86UX6)
Method: as §1

476 purified kinases [16] = target: 476 purified kinases (Homo sapiens, UniProt Q8IYT8)
476 purified kinases (Homo sapiens, UniProt Q8IYT8), sequence (Q8IYT8 whole entry): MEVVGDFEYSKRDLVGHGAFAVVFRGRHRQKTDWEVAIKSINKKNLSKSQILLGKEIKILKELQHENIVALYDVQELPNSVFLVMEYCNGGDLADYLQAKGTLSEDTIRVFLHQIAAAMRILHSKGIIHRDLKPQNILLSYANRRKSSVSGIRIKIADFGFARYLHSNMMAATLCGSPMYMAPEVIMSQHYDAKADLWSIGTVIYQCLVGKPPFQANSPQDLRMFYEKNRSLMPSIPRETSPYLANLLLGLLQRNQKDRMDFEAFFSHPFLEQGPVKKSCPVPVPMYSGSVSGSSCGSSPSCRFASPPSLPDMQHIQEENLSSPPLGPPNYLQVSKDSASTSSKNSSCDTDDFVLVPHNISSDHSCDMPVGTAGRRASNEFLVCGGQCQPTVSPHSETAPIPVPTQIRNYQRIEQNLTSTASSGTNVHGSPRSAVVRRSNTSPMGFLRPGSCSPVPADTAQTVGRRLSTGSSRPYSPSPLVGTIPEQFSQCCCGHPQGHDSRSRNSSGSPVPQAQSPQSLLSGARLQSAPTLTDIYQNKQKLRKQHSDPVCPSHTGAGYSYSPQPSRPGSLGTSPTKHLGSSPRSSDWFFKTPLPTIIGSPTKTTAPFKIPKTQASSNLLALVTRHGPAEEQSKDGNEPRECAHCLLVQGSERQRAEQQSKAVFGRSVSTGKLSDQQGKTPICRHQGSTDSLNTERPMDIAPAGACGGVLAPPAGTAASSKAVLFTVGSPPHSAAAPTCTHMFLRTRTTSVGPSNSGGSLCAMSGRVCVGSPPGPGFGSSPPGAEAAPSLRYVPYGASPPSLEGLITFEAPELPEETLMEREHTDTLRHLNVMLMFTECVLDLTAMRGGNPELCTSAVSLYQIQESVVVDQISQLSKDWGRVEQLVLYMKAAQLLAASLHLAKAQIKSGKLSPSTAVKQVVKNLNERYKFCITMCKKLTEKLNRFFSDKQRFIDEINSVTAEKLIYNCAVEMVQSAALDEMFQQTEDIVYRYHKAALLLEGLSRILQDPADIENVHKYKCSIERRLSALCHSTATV
Method: as §1

476 purified kinases [17] = target: 476 purified kinases (Homo sapiens, UniProt Q8N4C8); conditions: ZLYTE
Method: as §1

476 purified kinases [18] = target: 476 purified kinases (Homo sapiens, UniProt Q8WXR4)
476 purified kinases (Homo sapiens, UniProt Q8WXR4), sequence (Q8WXR4 whole entry): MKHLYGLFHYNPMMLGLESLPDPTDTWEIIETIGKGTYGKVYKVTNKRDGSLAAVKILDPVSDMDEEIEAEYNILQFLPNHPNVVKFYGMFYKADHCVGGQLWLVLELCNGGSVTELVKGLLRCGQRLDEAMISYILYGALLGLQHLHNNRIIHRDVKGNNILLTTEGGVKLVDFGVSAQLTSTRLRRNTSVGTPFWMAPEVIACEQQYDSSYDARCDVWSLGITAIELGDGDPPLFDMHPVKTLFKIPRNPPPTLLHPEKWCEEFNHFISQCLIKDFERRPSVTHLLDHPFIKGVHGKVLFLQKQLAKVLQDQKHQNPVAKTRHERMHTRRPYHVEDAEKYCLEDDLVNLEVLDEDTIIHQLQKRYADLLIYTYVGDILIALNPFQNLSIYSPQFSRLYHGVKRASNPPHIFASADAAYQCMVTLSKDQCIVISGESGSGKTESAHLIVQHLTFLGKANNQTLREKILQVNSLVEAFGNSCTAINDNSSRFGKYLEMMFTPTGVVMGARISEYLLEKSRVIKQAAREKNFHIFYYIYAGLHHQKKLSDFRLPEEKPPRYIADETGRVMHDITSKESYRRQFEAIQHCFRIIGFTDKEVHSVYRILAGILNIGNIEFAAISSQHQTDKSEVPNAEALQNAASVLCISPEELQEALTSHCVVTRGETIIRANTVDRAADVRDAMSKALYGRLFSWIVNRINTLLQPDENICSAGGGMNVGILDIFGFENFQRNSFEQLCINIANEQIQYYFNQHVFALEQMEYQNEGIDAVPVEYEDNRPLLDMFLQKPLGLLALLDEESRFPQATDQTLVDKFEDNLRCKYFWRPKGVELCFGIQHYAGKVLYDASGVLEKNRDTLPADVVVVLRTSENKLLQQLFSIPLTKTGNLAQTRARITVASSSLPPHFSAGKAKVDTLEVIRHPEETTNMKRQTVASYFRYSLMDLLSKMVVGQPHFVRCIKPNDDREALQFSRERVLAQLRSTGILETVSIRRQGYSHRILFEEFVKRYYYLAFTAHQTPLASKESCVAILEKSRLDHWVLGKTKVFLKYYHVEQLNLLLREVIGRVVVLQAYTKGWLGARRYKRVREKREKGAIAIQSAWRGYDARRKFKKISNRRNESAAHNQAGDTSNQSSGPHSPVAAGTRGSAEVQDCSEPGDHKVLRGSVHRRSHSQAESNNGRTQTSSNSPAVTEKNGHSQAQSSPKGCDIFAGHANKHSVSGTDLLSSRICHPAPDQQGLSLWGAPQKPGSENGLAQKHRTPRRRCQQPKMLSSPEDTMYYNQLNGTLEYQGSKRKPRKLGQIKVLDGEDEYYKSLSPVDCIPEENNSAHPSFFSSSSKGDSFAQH
Method: as §1

476 purified kinases [19] = target: 476 purified kinases (Homo sapiens, UniProt Q96GX5)
Method: as §1

476 purified kinases [20] = target: 476 purified kinases (Homo sapiens, UniProt Q9UBE8)
Method: as §1

476 purified kinases [21] = target: 476 purified kinases (Homo sapiens, UniProt Q9UEW8)
Method: as §1

476 purified kinases [22] = target: 476 purified kinases (Homo sapiens, UniProt Q9UPE1); conditions: ZLYTE
476 purified kinases (Homo sapiens, UniProt Q9UPE1), sequence (Q9UPE1 whole entry): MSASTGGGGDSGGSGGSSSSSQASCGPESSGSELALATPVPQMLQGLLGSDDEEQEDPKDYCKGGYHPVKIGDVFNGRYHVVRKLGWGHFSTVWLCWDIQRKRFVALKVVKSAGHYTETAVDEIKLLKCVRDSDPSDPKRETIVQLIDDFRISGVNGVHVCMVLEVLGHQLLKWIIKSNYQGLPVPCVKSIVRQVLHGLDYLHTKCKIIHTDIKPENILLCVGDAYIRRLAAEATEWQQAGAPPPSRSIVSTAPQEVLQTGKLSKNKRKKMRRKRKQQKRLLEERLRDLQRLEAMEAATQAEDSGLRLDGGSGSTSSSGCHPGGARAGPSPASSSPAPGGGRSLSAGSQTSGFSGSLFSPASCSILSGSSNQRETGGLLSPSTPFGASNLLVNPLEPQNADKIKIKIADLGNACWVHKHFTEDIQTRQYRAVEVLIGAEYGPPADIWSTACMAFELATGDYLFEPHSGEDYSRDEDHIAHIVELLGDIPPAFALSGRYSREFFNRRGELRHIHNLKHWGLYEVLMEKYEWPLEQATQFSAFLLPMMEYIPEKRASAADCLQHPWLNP
Method: as §1

476 purified kinases [23] = target: 476 purified kinases (Homo sapiens, UniProt Q9Y3S1)
Method: as §1

476 purified kinases (Homo sapiens, UniProt P11802), sequence (P11802 whole entry): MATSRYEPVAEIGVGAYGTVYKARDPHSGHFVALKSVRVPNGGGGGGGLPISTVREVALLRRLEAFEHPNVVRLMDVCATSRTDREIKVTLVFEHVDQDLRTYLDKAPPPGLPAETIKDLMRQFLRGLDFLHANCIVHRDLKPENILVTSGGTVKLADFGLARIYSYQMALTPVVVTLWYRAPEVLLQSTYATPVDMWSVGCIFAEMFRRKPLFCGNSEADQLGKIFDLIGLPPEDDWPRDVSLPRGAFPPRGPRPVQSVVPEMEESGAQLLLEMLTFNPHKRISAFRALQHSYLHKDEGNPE

Compound: Cc1nc(Nc2ncc(C(=O)Nc3c(C)cccc3Cl)s2)cc(N2CCN(CCO)CC2)n1 [Dasatinib]
- BMPR1B (ALK6) (LanthaScreen Binding) (476 purified kinases [1]; 10 nM compound): 7
- BMPR1B (ALK6) (LanthaScreen Binding) (476 purified kinases [1]; 10 nM compound + 10 µM FKBP12): -9
- ULK1 (LanthaScreen Binding) (476 purified kinases [2]; 10 nM compound): -2
- ULK1 (LanthaScreen Binding) (476 purified kinases [2]; 10 nM compound + 10 µM FKBP12): 0
- CDK4/cyclin D1 (kinase profiling) (476 purified kinases [3]; 10 nM): 6
- CDK4/cyclin D3 (kinase profiling) (476 purified kinases [3]; 10 nM): 9
- CDK4/cyclin D1 (kinase profiling) (476 purified kinases [3]; 10 nM + 10 µM FKBP12): -10
- CDK4/cyclin D3 (kinase profiling) (476 purified kinases [3]; 10 nM + 10 µM FKBP12): 12
- PRKCH (PKC eta) (kinase profiling) (476 purified kinases [4]; 10 nM): 20
- PRKCH (PKC eta) (kinase profiling) (476 purified kinases [4]; 10 nM + 10 µM FKBP12): 5
- ACVRL1 (ALK1) (LanthaScreen Binding) (476 purified kinases [5]; 10 nM compound): 16
- ACVRL1 (ALK1) (LanthaScreen Binding) (476 purified kinases [5]; 10 nM compound + 10 µM FKBP12): 0
- SYK (kinase profiling) (476 purified kinases [6]; 10 nM): 6
- SYK (kinase profiling) (476 purified kinases [6]; 10 nM + 10 µM FKBP12): 8
- PIP4K2A (Adapta) (476 purified kinases [7]; 10 nM compound): -15
- PIP4K2A (Adapta) (476 purified kinases [7]; 10 nM compound + 10 µM FKBP12): 4
- CSNK1G2 (CK1 gamma 2) (kinase profiling) (476 purified kinases [8]; 10 nM): 5
- CSNK1G2 (CK1 gamma 2) (kinase profiling) (476 purified kinases [8]; 10 nM + 10 µM FKBP12): 0
- CDK6/cyclin D1 (kinase profiling) (476 purified kinases [9]; 10 nM): 11
- CDK6/cyclin D1 (kinase profiling) (476 purified kinases [9]; 10 nM + 10 µM FKBP12): -10
- DMPK (LanthaScreen Binding) (476 purified kinases [10]; 10 nM compound): 1
- DMPK (LanthaScreen Binding) (476 purified kinases [10]; 10 nM compound + 10 µM FKBP12): 4
- PAK2 (PAK65) (kinase profiling) (476 purified kinases [11]; 10 nM): 11
- PAK2 (PAK65) (kinase profiling) (476 purified kinases [11]; 10 nM + 10 µM FKBP12): 11
- TNK1 (kinase profiling) (476 purified kinases [12]; 10 nM): 0
- TNK1 (kinase profiling) (476 purified kinases [12]; 10 nM + 10 µM FKBP12): -2
- STK38 (NDR) (LanthaScreen Binding) (476 purified kinases [13]; 10 nM compound): 0
- STK38 (NDR) (LanthaScreen Binding) (476 purified kinases [13]; 10 nM compound + 10 µM FKBP12): 2
- MLCK (MLCK2) (LanthaScreen Binding) (476 purified kinases [14]; 10 nM compound): -3
- MLCK (MLCK2) (LanthaScreen Binding) (476 purified kinases [14]; 10 nM compound + 10 µM FKBP12): 3
- STK32C (YANK3) (LanthaScreen Binding) (476 purified kinases [15]; 10 nM compound): -1
- STK32C (YANK3) (LanthaScreen Binding) (476 purified kinases [15]; 10 nM compound + 10 µM FKBP12): -2
- ULK2 (LanthaScreen Binding) (476 purified kinases [16]; 10 nM compound): -3
- ULK2 (LanthaScreen Binding) (476 purified kinases [16]; 10 nM compound + 10 µM FKBP12): -6
- MINK1 (kinase profiling) (476 purified kinases [17]; 10 nM): 10
- MINK1 (kinase profiling) (476 purified kinases [17]; 10 nM + 10 µM FKBP12): 10
- MYO3B (MYO3 beta) (LanthaScreen Binding) (476 purified kinases [18]; 10 nM compound): 3
- MYO3B (MYO3 beta) (LanthaScreen Binding) (476 purified kinases [18]; 10 nM compound + 10 µM FKBP12): 8
- MASTL (LanthaScreen Binding) (476 purified kinases [19]; 10 nM compound): 0
- MASTL (LanthaScreen Binding) (476 purified kinases [19]; 10 nM compound + 10 µM FKBP12): -1
- NLK (LanthaScreen Binding) (476 purified kinases [20]; 10 nM compound): 6
- NLK (LanthaScreen Binding) (476 purified kinases [20]; 10 nM compound + 10 µM FKBP12): -1
- STK39 (STLK3) (LanthaScreen Binding) (476 purified kinases [21]; 10 nM compound): 4
- STK39 (STLK3) (LanthaScreen Binding) (476 purified kinases [21]; 10 nM compound + 10 µM FKBP12): -5
- STK23 (MSSK1) (kinase profiling) (476 purified kinases [22]; 10 nM): 5
- STK23 (MSSK1) (kinase profiling) (476 purified kinases [22]; 10 nM + 10 µM FKBP12): 7
- WNK2 (LanthaScreen Binding) (476 purified kinases [23]; 10 nM compound): 0
- WNK2 (LanthaScreen Binding) (476 purified kinases [23]; 10 nM compound + 10 µM FKBP12): -1
